Measured values published in PubChem BioAssay (NCI).
“And” between values parts separate entries of the source, which are not always exact repeats. Identical values can stand only once.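 Test compounds were applied to cells in 96-well plates for 48 hours at 5 doses. The concentration for 50% growth inhibition is given as GI50. The concentration for full growth arrest is given as TGI.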 Where a SMILES comes first, the peptide text is derived from it. Side-chain parts run from the residue outwards. The star is where a group is joined. Cbz = O=C(OCc1ccccc1)*; Boc = CC(C)(C)OC(=O)*

How the values were obtained:
Assay in all cases: DTP human tumour cell line panel, 48 h
CCRF-CEM leukemia = tested on: CCRF-CEM leukemia
IGROV1 ovarian = tested on: IGROV1 ovarian
K-562 leukemia = tested on: K-562 leukemia
KM12 colon = tested on: KM12 colon
MDA-MB-435 = tested on: MDA-MB-435
OVCAR-8 ovarian = tested on: OVCAR-8 ovarian
PC-3 prostate = tested on: PC-3 prostate
SW-620 colon = tested on: SW-620 colon
TK-10 renal = tested on: TK-10 renal
NCI-H522 lung = tested on: NCI-H522 lung

Row | SMILES | TGI (CCRF-CEM leukemia) | TGI (IGROV1 ovarian) [µM] | TGI (K-562 leukemia) [µM] | TGI (KM12 colon) [µM] | TGI (MDA-MB-435) | TGI (OVCAR-8 ovarian) [µM] | TGI (PC-3 prostate) [µM] | TGI (SW-620 colon) [µM] | TGI (TK-10 renal) [µM] | TGI (NCI-H522 lung) | GI50 (OVCAR-8 ovarian) [µM] | GI50 (TK-10 renal) [µM] | GI50 (CCRF-CEM leukemia) [µM]
1 | CC(=O)OCC1OC(n2c(N)c(C#N)c(-c3cccc(Cl)c3)c(C#N)c2=S)C(OC(C)=O)C(OC(C)=O)C1OC(C)=O (stereo not given) | > 100 µM | > 100 | > 100 | 38.9 | 50 µM | 39.9 | > 100 | > 100 | 54.2 | – | – | – | –
2 | CC(=O)OCCOCNC(=S)N/N=C(\C)c1cccs1 | > 100 µM | > 100 | > 100 | > 100 | – | > 100 | – | > 100 | > 100 | > 100 µM | – | – | –
3 | COc1ccc(CCCN2c3ccccc3Sc3ccccc32)cc1 | > 100 µM | > 100 | > 100 | > 100 | – | > 100 | – | > 100 | > 100 | > 100 µM | – | – | –
4 | O=C(CSCC(=O)N/N=C\c1ccccc1F)N/N=C\c1ccccc1F | > 100 µM | > 100 | – | > 100 | > 100 µM | > 100 | – | > 100 | > 100 | > 100 µM | – | – | –
5 | Cc1c2oc3c(C)cc(F)c(C(=O)NC4C(=O)NC(C(C)C)C(=O)N5CCCC5C(=O)N(C)CC(=O)N(C)C(C(C)C)C(=O)OC4C)c3nc-2c(C(=O)NC2C(=O)NC(C(C)C)C(=O)N3CCCC3C(=O)N(C)CC(=O)N(C)C(C(C)C)C(=O)OC2C)c(N)c1=O (stereo not given) | 0.0385 µM and 0.309 µM | > 100 | – | – | 1.42 µM and 1.19 µM | – | 4.68 | 3.77 | – | 1.66 µM and 1.95 µM | 0.142 | 1.07 | –
6 | CC(=O)OCC1OC(SC2=NC(=O)/C(=C/c3ccccc3)S2)C(OC(C)=O)C(OC(C)=O)C1OC(C)=O (stereo not given) | 94.4 µM | > 100 | – | > 100 | 38.8 µM | 31.7 | > 100 | 74.1 | – | 80.6 µM | – | – | –
7 | O=S1(=O)OCCCOS(=O)(=O)C1(Br)Br | > 100 µM | – | – | > 100 | > 100 µM | > 100 | > 100 | > 100 | > 100 | > 100 µM | – | – | –
8 | c1ccc2c(c1)Sc1ccccc1N2C1CN2CCC1CC2 (stereo not given) | 33.9 µM | 42.3 | 29.5 | 33.9 | – | 32.5 | – | 33.2 | 27.7 | 38.9 µM | – | – | –
9 | OCC1OC(c2ccccc2)CC1O (stereo not given) | > 100 µM | > 100 | > 100 | > 100 | > 100 µM | > 100 | – | > 100 | > 100 | – | – | – | –
10 | N#CCc1nc2cc(C(F)(F)F)ccc2s1 | – | – | – | > 100 | > 100 µM | 87.4 | – | > 100 | > 100 | 34.5 µM | – | – | –
11 | CC(C)C1=C(Cc2ccccc2)C(=O)O/C1=C\c1ccc(O)c(Cl)c1 | 46.8 µM | 30.5 | 38.8 | 32 | 30.7 µM | 33.1 | 31.7 | 34.9 | 31.8 | – | – | – | –
12 | CC1(C)CN=CC(C)(OCc2ccccc2)C(=O)NC(C)(C)CN=CC(C)(OCc2ccccc2)C(=O)N1 (stereo not given) | > 10 µM | > 10 | > 10 | > 10 | > 10 µM | > 10 | > 10 | > 10 | > 10 | – | – | – | –
13 | COc1ccc(C2=C(Cl)c3cc(OC)c(OC)cc3C2)cc1OC | > 100 µM | > 100 | > 100 | – | – | > 100 | – | > 100 | – | > 100 µM | – | – | –
14 | O=c1c2cc(I)ccc2nc(SCc2nnco2)n1Cc1ccccc1 | 62.9 µM | > 100 | – | > 100 | > 100 µM | > 100 | > 100 | > 100 | > 100 | > 100 µM | – | – | –
15 | O=NN1C(c2ccccc2)CCCC1c1ccccc1 (stereo not given) | > 100 µM | > 100 | > 100 | > 100 | – | > 100 | – | > 100 | – | > 81.2 µM | – | – | –
16 | CC1=NN(C(=O)Cc2ccccc2)C(=O)/C1=C\c1ccccc1O | > 100 µM | > 100 | > 100 | > 100 | – | > 100 | – | > 100 | > 100 | > 100 µM | – | – | –
17 | COc1ccc(C2=NNC(c3cc4cc(Br)ccc4nc3Cl)C2)cc1 (stereo not given) | 5.28 µM | > 25 | > 25 | > 25 | > 25 µM | – | > 25 | > 25 | – | – | – | – | –

Row | SMILES | TGI (CCRF-CEM leukemia) | TGI (IGROV1 ovarian) [µM] | TGI (K-562 leukemia) [µM] | TGI (KM12 colon) [µM] | TGI (MDA-MB-435) | TGI (OVCAR-8 ovarian) [µM] | TGI (PC-3 prostate) [µM] | TGI (SW-620 colon) [µM] | TGI (TK-10 renal) [µM] | TGI (NCI-H522 lung) | GI50 (OVCAR-8 ovarian) [µM] | GI50 (TK-10 renal) [µM] | GI50 (CCRF-CEM leukemia) [µM]
18 | Cn1nc2ccc3nccc(NCCNCCO)c3c2n1 | > 100 µM | > 100 | > 100 | > 100 | – | > 100 | – | > 100 | > 100 | > 100 µM | – | – | –
19 | CC(=O)c1[nH]c(Nc2ccc(C)cc2)c(C(=S)Nc2ccccc2)c1N | 62.1 µM | 35.7 | 72.2 | 34.8 | 30.9 µM | 39.4 | – | 96.9 | 35.5 | 32.5 µM | – | – | –
20 | NC1=Nc2ccccc2Sc2nc3ccccc3n21 | > 100 µM | > 100 | > 100 | > 100 | – | – | > 100 | > 100 | > 100 | > 100 µM | – | – | –
21 | CC1=CC(=O)/C(=C/n2c(=S)[nH]c3cc(C)ccc32)C(=O)O1 | > 100 µM | > 100 | – | > 100 | > 100 µM | > 100 | > 100 | > 100 | > 100 | > 100 µM | – | – | –
22 | CN(C)CC1CCCc2ccccc2C1=O (stereo not given) | – | 4.17 | – | 4.69 | 2.62 µM | 4.29 | 3 | – | 14.7 | – | – | – | –
23 | O=C(CC(c1ccccc1)C(C(=O)c1ccncc1)C(CC(=O)c1ccncc1)c1ccccc1)c1ccncc1 (stereo not given) | > 100 µM | > 100 | – | > 100 | > 100 µM | > 100 | > 100 | > 100 | > 100 | – | – | – | –
24 | O=C(Nc1ccc(Sc2ccc(N=Nc3c(O)c(S(=O)(=O)O)cc4cc(S(=O)(=O)O)ccc34)cc2)cc1)c1ccc(N=Nc2c(O)c(S(=O)(=O)O)cc3cc(S(=O)(=O)O)ccc23)cc1 | 64.3 µM | > 100 | > 100 | > 100 | – | > 100 | – | > 100 | > 100 | 35.4 µM | – | – | –
25 | COc1cc([C@@H]2c3cc4c(cc3[C@@H](c3c(O)cc(O)c5c3O[C@H](c3ccc(O)c(O)c3)[C@H](OC(=O)c3cc(O)c(O)c(O)c3)C5)[C@H]3COC(=O)[C@H]23)OCO4)cc(OC)c1O | 59 µM | > 100 | – | > 100 | 57.3 µM | > 100 | > 100 | > 100 | > 100 | > 100 µM | – | – | –
26 | O=C(NN1C(=O)C(Cl)C1c1ccccc1Cl)c1ccccc1O (stereo not given) | > 100 µM | – | > 100 | > 100 | – | > 100 | – | – | > 100 | > 100 µM | – | – | –
27 | O=C(c1ccccc1O)c1cc(-c2ncc3c(=O)c4ccccc4oc3n2)c(-c2ccccc2O)[nH]c1=O | 69.3 µM | > 70.1 | 75.1 | > 80 | – | > 90.2 | – | > 77.1 | – | 61.5 µM | – | – | –
28 | O=C(c1ccccc1)c1c(C(F)(F)F)n([O-])c2cc(F)c(F)cc2[n+]1=O | > 100 µM | 6.79 | – | 3.9 | 4.14 µM | 1.15 | 2.44 | > 100 | 0.816 | > 7.96 µM | – | – | 8.72
29 | COc1cc2c(c(OC)c1OC)-c1ccc(SC)c(=O)cc1[C@@H](NCc1cccc([N+](=O)[O-])c1)CC2 | > 100 µM | > 100 | 2.39 | 0.0754 | – | 43.8 | – | > 100 | > 100 | – | – | – | –
30 | C[N+](C)(C)CC(CC(=O)[O-])C1CC1 (stereo not given) | > 100 µM | > 100 | > 100 | > 100 | – | > 100 | – | > 100 | > 100 | > 100 µM | – | – | –
31 | COc1cccc([C@@H]2CC(=O)c3cc4c(cc3N2)OCO4)c1 | > 100 µM | – | > 100 | > 100 | > 100 µM | > 100 | > 100 | > 100 | > 100 | – | – | – | –
32 | CC(C)(C)OC(=O)NC(CCCCNC(=O)CNC(=O)OCc1ccccc1)C(=O)NC(CCCCNC(=O)CNC(=O)OCc1ccccc1)C(=O)NC(CCCCNC(=O)CNC(=O)OCc1ccccc1)C(=O)NC(CCCCNC(=O)CNC(=O)OCc1ccccc1)C(=O)O (stereo not given) (Boc-K([Gly-Cbz])K([Gly-Cbz])K([Gly-Cbz])K([Gly-Cbz])-OH; configuration not given here) | > 100 µM | > 100 | > 100 | – | – | > 100 | > 100 | > 100 | > 100 | > 100 µM | – | – | –
33 | Cc1ccc(NC(=O)/C(=N/NC(=O)C[N+](C)(C)C)c2nc3ccccc3[nH]c2=O)cc1 | – | > 100 | – | – | – | > 100 | – | 33.8 | > 100 | – | – | – | –
34 | Cn1cnc(SC2=C3C(=O)C=C4S[C@H]5C[C@]42c2c(c(O)c4c6c2=[N+]3CCC=6C=N4)N5)c1CC(N)C(=O)O (stereo not given in full) | 45.9 µM | 30.2 | 41.3 | 37.8 | – | 27.2 | – | 18.5 | > 100 | 16.4 µM | – | – | –
